“Also recorded” adds a separate entry of the source. Where a name gives a salt, the structure may show the parent alone.
Experiments:
AP-1 = AP-1 luciferase reporter assay in HEK293 cells; assay type: cell-based
Description: All expression plasmids were transiently transfected into HEK293 cells in a 96-well plate (0.1 μg/well) by using Effectene transfection reagent (Qiagen, Valencia, Calif.) according to the manufacturer's manual. HEK293 cells were maintained in Dulbecco's modified Eagle medium (Sigma, St. Louis, Mo.) supplemented with 10% fetal bovine serum (Atlanta Biologicals, Lawrenceville, Ga.) and incubated at 37° C. in a 5% CO2 incubator. After 24 hrs incubation, the medium was changed to DMEM with 0.2% FBS, and the transfectants were exposed to various concentrations of compound I and TPA (10 ng/ml). Cells were lysed with passive lysis buffer and the luciferase assay was performed using the Firefly-Luciferase reporter assay system (Promega, Madison, Wis.) and MLX Luminometer (Dynex Technology, Chantilly, Va.).
Three different luciferase reporter genes, AP-1 reporter containing four times TRE consensus originated from GCN4 and SRE reporter purchased from Stratagene (La Jolla, Calif.) respectively are as described previously (Suzukawa et al., Environ. Health Perspect., 2002, 110, 865-70). NFκB reporter is driven by five times NFκB responsive element inserted into Cis-reporter backbone (Stratagene, La Jolla, Calif.). Others include mouse COX-2 promoter region from −203 to +70 relative to the transcription site inserted into pTIS10L vector (Kim and Fischer, J. Biol. Chem., 1998, 273, 27686-94), human uPAR promoter region from −141 to +47 relative to transcription start site in pGL3 vector (Wang et al., Eur. J. Biochem., 2000, 267, 3248-54), and human VEGF promoter sequence from −2274 to +379 inserted into the pGL2 vector (Ding et al., J. Biol. Chem., 2006, 281, 9093-100). […]

STAT3 = experiment: Immunoblot of TPA-inducible STAT3 phosphorylation; assay type: cell-based; conditions: 17.0 μM and 8.5 μM pretreatment
Description: (§1) To measure endogenous level of several proteins in response to TPA induction and compound I, HEK293 cells were lysed with RIPA buffer (10 mM Tris-HCl pH 7.5, 1 mM EDTA, 0.1% sodium dodecyl sulfate, 0.1% deoxycholate, and protease inhibitor). Whole cell extracts were subjected to immunoblot analysis with the following antibodies: p65 (F-6), p50 (E-10), p52 (C-5), RelB (C-19), IκBα (C-21), PCNA (F-2) were obtained from Santa Cruz Biotechnology (Santa Cruz, Calif.). IKKα, IKKβ, IKKγ, phospho-IκBα, phospho-IKKα/β, phospho-IKKγ, pohospho-Stat3 (Tyr 705 and Ser 727), phospho-p65 (Ser536 and Ser276), phospho-p44/42, phospho-JNKs were purchased from Cell Signaling (Danvers, Mass.), and α-tubulin from Sigma (St. Louis, Mo.). Nuclear and cytoplasmic extracts were prepared with HEK293 cells by NE-PER Nuclear and Cytoplasmic Extraction Reagents (Pierce Biotechnology, Rockford, Ill.) according to the manufacturer's protocol.
The selectivity of compound I was evaluated by measuring phosphorylation of proteins involved in the AP-1 induction pathway. AP-1 dependent transcription can be activated by MAP Kinases JNK, ERK 1/2 (p44/42). […] At these concentrations compound I, in contrast, completely repressed major regulators in the NFκB activation pathway. JNKs are activated by a variety of environmental stresses responsible for AP-1 activation through c-Jun phosphorylation. […]

IκBα = experiment: Immunoblot of phosphorylated IκBα in HEK293 cells; assay type: cell-based
Description: as §1
To characterize the activity of compound I in targeting events upstream of NFκB, endogenous levels of kinases involved in NFκB activation were examined by immunoblot analysis. The well-established upstream regulators of NFκB activation are IKKα, IKKβ, and IκBα. […] Moreover, the phosphorylation of IκBα was inhibited even at 1.1 μM showing dose-dependent decrease by compound I pretreatment. […] In addition, compound I inhibits TNFα-induced phosphorylation of IKKα/β and IκBα at 1 hour. IKKβ from IKKα was not able to be distinguished in this analysis with antibodies which detect phosphorylated IKKα at Ser176/180 and IKKβ at Ser177/181. TPA-induced phosphorylation of IκBα is mediated primarily through IKKβ catalytic activity; thus compound I represses phosphorylation of IKKβ and in an embodiment both IKKβ and IKKα. […] The total protein levels of IKKα/β, IKKγ, and IκBα were not affected. Thus, upstream activation events rather than transcription factor binding to DNA are targeted by compound I when it inhibits NFκB induction.

IKKα = IKKα (Homo sapiens, UniProt O15111); experiment: Off-chip incubation mobility-shift kinase assay, IKKα; assay type: biochemical; conditions: fully activated, phosphorylated IKKα; 1.25, 2.50, 5.00, and 10.00 μM
Description: In an attempt to determine whether compound I interferes with ATP binding to the catalytic site, the activity of compound I was measured with fully activated, phosphorylated IKKα or IKKβ. […] However, whether this compound interacts outside of the ATP binding pocket of IKK as an ATP non-competitive inhibitor similar to BMS-345541 is unknown. […] Luciferase activities with TPA induction alone were set at 100% and the relative activities with TPA in the presence of compounds are shown.

IKKα, sequence (O15111 whole entry, species assumed): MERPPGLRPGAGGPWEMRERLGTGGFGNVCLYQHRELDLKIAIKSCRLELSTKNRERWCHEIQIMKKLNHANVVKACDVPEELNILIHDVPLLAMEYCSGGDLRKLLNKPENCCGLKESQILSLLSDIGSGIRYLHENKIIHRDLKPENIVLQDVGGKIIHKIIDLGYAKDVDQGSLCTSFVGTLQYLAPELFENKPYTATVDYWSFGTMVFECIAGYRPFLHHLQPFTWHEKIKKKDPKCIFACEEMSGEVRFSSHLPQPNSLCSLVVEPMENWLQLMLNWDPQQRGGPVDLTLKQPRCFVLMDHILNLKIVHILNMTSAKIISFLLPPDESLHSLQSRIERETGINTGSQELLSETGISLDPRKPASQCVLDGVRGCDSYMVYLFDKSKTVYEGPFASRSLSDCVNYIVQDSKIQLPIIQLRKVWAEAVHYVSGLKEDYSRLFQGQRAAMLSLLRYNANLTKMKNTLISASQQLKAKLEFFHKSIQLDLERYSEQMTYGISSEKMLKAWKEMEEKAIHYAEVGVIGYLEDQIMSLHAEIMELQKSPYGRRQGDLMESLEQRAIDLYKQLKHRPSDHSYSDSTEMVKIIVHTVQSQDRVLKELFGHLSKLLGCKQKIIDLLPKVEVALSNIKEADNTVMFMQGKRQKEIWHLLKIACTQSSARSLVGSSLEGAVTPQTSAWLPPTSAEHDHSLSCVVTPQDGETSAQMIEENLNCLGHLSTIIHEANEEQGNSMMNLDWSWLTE

IC50 (AP-1; HEK293, 1 h pretreatment, TPA 10 ng/ml 18 hrs, read-out: IC50 for inhibition of TPA induced AP-1): 17 µM
Inhibition of IKKα activity, phosphorylation of a peptide substrate (IKKα): does not inhibit
Compound: Cc1cc(N)ccc1N=Nc1ccc(S(=O)(=O)CCOS(=O)(=O)O)cc1 [compound I, 2-(4-((4-amino-2-methylphenyl)diazenyl)phenylsulfonyl)ethyl hydrogen sulfate]
AP-1 luciferase activity, % of the activity with TPA alone (AP-1; compound at 17.0 μM, HEK293, TPA 10 ng/ml 18 hrs): 50%
TPA inducible phosphorylation of STAT3 (STAT3): no repression
TPA-induced phosphorylation of IκBα (IκBα; 1.1 μM): inhibited; also recorded: reduced
TPA-induced phosphorylation of IκBα (IκBα; 17.0 and 8.5 μM pretreatment, HEK293): almost completely blocked; also recorded: complete blocking
Total protein levels of IKKα/β, IKKγ, and IκBα (IκBα; HEK293 immunoblot): not affected
TPA-induced phosphorylation of IκBα (IκBα; at 6 and 12 hours): inhibited
TNFα-induced phosphorylation of IκBα (IκBα; at 1 hour): inhibits

Reference: patent US8729053B2, “Nuclear factor kappa B pathway inhibitor composition and use of same” (The United States of America, as represented by the …, priority 2008, dated 2014)
